Source: patent publication US12157713B2, “Conjugated oligoelectrolytes as antimicrobial agents” (Nanyang Technological University, priority 2018, dated 2024)
Values joined by “and” are separate entries in the source; they are usually repeats but may differ in a detail not shown here. Equal entries are not always repeated. Where two headings read alike, the source gives them in different places.

Experiments:
[1] = system: Staphylococcus aureus MRSA ATCC 43300; test: Single-dose growth inhibition, Sa; type: cell-based
Experimental: (§1) Inhibition of bacterial growth was determined by measuring the absorbance at 600 nm (OD600), using a Tecan M1000 Pro monochromator plate reader. Growth inhibition was calculated for each well, relative to the reference growths determined from a negative control (media only) and positive control (bacteria without inhibitors) incubated in the same plate. A single dose of 32 μg/mL of COE (final concentration) was used for each test.
(§2) Percentage growth inhibition of an individual sample was calculated based on growth in a reference well determined from negative controls (media only) and positive controls (bacterial/fungal media without inhibitors). Negative inhibition values indicate that the growth rate (or OD600) is higher compared to the reference growth (bacteria/fungi only, set to 0% inhibition). The growth rates for all bacteria and fungi may vary at −/+10%, which were within the reported normal distribution of bacterial/fungal growth. Any significant variations (or outliers/hits) were identified by the modified Z-Score, and the active compounds were selected by a combination of inhibition values and Z-Score.
(§3) A M(i) value of >|2.5| (absolute) would classify the sample as outliers or hits. Active samples were denoted as compounds with inhibition values equal to or above 80% and absolute Z-Score above |2.5| for either replicate (n=2 on different plates). Partial active samples were denoted as compounds with inhibition values from 50% to <80%, or absolute Z-Score below |2.5|.

[2] = system: Acinetobacter baumannii ATCC 19606; test: Single-dose growth inhibition, Ab; type: cell-based
Experimental: as §1, §2, §3

[3] = system: organism classes (Gram-negative, Gram-positive and fungi); test: Single-dose screening summary by organism class; type: cell-based; details: 32 μg/mL; 0 = no activity
Experimental: as §2
Z-Score analysis was carried out to investigate outliers or hits among the samples. The Z-Score was calculated based on the sample population using a modified Z-Score method which accounts for possible skewed sample population. The modified method uses median and MAD ([…]) instead of average and standard deviation, and a scaling factor (Iglewicz, B. & Hoaglin, D. C. Volume 16: How to Detect and Handle Outliers. The ASQC Basic Reference in Quality Control: Statistical Techniques, 1993). The equation to calculate the modified Z-Score value is as follow: […]
as §3

[4] = system: Escherichia coli FDA control ATCC 25922; test: Single-dose growth inhibition, Ec; type: cell-based
Experimental: as §1, §2, §3

[5] = system: Cryptococcus neoformans var. grubii H99; ATCC 208821; test: Single-dose growth inhibition, Cn; type: cell-based
Experimental: (§4) Growth inhibition of C. albicans was determined by measuring the absorbance at 530 nm (OD530), while the growth inhibition of C. neoformans was determined by measuring the difference in absorbance between 600 and 570 nm (OD600-570), after the addition of resazurin (0.001 wt. % final concentration) and incubation at 35° C. for additional 2 hrs. The absorbance was measured using a Biotek Synergy HTX plate reader. The relative growth inhibition was calculated for each well, relative to that determined from a negative control (media only) and positive control (bacteria without inhibitors) on the same plate as references. A single dose of 32 μg/mL of COE (final concentration) was used for each test.
as §2, §3

[6] = system: Candida albicans ATCC 90028; test: Single-dose growth inhibition, Ca; type: cell-based
Experimental: as §4, §2, §3

[7] = system: Klebsiella pneumoniae MDR ATCC 700603; test: Single-dose growth inhibition, Kp; type: cell-based
Experimental: as §1, §2, §3

[8] = system: Pseudomonas aeruginosa ATCC 27853; test: Single-dose growth inhibition, Pa; type: cell-based
Experimental: as §1, §2, §3

E. coli K12 [9] = test: MIC by broth microdilution against E. coli K12; type: cell-based; details: Escherichia coli, read-out: MIC against E. coli K12
Experimental: The respective minimum inhibition concentration (MIC) of each COE molecule was determined using a broth microdilution method. Briefly, COEs were diluted via a 2-fold dilution series in 100 μL of either Muller Hinton Broth (MHB) for E. coli and S. aureus or Brain Heart Infusion Broth (BHI) for E. faecalis in a 96-well plate to achieve the desired final concentration. Subsequently, each well was inoculated with 100 μL of 1×10^6 colony forming units (CFU) mL^−1 of the respective microorganism in MHB for E. coli or BHI for E. faecalis to achieve an inoculum density of 5×10^5 CFU mL^−1. The plates were then incubated at 37° C. with shaking (200 rpm) for 18 hrs. […] The results were obtained in triplicate.
The MIC values of COE-D4, COE-D6 and COE-D8 against the reference strain E. coli K12, pathogenic E. coli UT189, and the Gram positive pathogen Enterococcus faecalis OG1RF were determined using a broth microdilution method as described in the general method above. The MICs for E. coli K12 were determined to be 128, 16, and 4 μg mL^−1 for COE-D4, COE-D6, and COE-D8, respectively (FIG. 5a). […] This is not surprising as these two organisms differ in the capsular polysaccharides that they expressed, which are known to hinder the uptake of antimicrobials and mitigate their potency (M. A. Campos, et al., Infect. Immun. 2004, 72, 7107-7114). A K-type capsid comprising α2-8-linked sialic acid is excreted by UT189 and is known to be an important virulence factor for this organism (C. Whitfield, et al., Mol. Microbiol. 1999, 31, 1307-1319; G. G. Anderson, et al., Infect. Immun. 2010, 78, 963-975).

[10] = Solubility in PBS / aqueous solubility; type: physicochemical
E. coli K12 [11] = test: Cellular uptake by E. coli K12 (absorption spectroscopy); type: cell-based, Escherichia coli; details: 10 μg/mL COE in PBS, OD=0.5, 2 hrs, room temperature
Experimental: The relative membrane affinity of COE-D4, COE-D6 and COE-D8 was estimated from the quantity taken up by cells using absorption spectroscopy. After cultures of E. coli K12 were grown in MHB at 37° C., the cells were harvested by centrifugation (6000 rpm, 5 min) and washed twice with PBS solution (pH=7.2). The cells were then resuspended in PBS and with the density adjusted to OD=1.0. Thereafter, 5 mL of this cell suspension was mixed with an equal volume of 20 μg/mL of COE in PBS to achieve a final concentration of 10 μg/mL (in triplicates). After exposure to COEs for 2 hrs at room temperature and with shaking (200 rpm), the cells were removed by centrifugation and the supernatant was collected for absorbance scans to quantify the remaining COE in the supernatant. The uptake quantity was estimated by comparing the absorbance of the supernatant to the corresponding control COE solution (i.e. 10 μg/mL in PBS). The procedure for uptake measurements at the lower temperature is similar to the one described above, but with the exposure to COEs and centrifugation occurring at 4° C. instead of room temperature
The effect of molecular structures of the COEs on relative membrane affinity, estimated from the amount taken up by E. coli K12, was measured by absorption spectroscopy (FIG. 8a-c). These experiments utilised cell suspensions (OD=0.5) incubated for 2 hrs with 10 μg mL^−1 of various COE. Cells were removed by centrifugation, and the amount of uncomplexed COE was determined from the optical absorption spectra. The longest molecule, COE-D8, achieved the highest uptake in bacteria (72%). In contrast, only 3% of COE-D4 was absorbed while the uptake for COE-D6 was 16% (Table 1a).
Parallel experiments were carried out at 4° C. […] As a result of the reduced fluidity of cellular membrane at lower temperature, the uptake decreased to around 1% for COE-D4, 5% for COE-D6, and 34% for COE-D8.

[12] = system: Pseudomonas aeruginosa (PAO1) biofilm; test: Anti-biofilm assay (MBEC plate, crystal violet); type: cell-based; details: P. aeruginosa PAO1 biofilm, 1 hour challenge in M9GC
Experimental: Pseudomonas aeruginosa (PAO1) was grown in Luria-Bertani (LB) broth under shaking (200 rpm) at 37° C. for 16-18 hours. The overnight culture was diluted to 1:200 in M9GC media (M9 medium supplemented with glucose and casamino acids), and 200 μL of diluted culture was added to each well of MBEC plate (Innovotech, Canada). After incubating at 37° C. for 5 hours under shaking (200 rpm), biofilm was formed on the pegs of the MBEC plate. The pegs were then rinsed with 1× phosphate buffered saline (PBS) solution (200 μL per well), and exposed to a two-fold dilution series of COE in M9GC media (200 μL per well). The challenge plate was incubated at 37° C. for 1 hour under shaking (200 rpm), and then the pegs were washed using 200 μL PBS before being dipped into 180 μL 0.1 wt. % crystal violet aqueous solution. After incubating at room temperature for 15 minutes, the pegs were rinsed with PBS twice and transferred to a plate containing 200 μL absolute ethanol in each well for 15 minutes. The biofilm mass was quantified by measuring the absorption of crystal violet/ethanol solution at 550 nm. The minimum biofilm dispersal concentration (MBDC) values were determined as the lowest COE concentration at which biofilm attached on the peg was completely dispersed. The results were repeated in triplicate.

[13] = 32 μg/mL single dose, n=2, read-out: Growth inhibition Sa
[14] = ATCC19606, 32 μg/mL single dose, n=2, read-out: Growth inhibition Ab
[15] = ATCC25922, 32 μg/mL single dose, n=2, read-out: Growth inhibition Ec
[16] = ATCC208821, 32 μg/mL single dose, n=2, read-out: Growth inhibition Cn
[17] = ATCC90028, 32 μg/mL single dose, n=2, read-out: Growth inhibition Ca
[18] = ATCC700603, 32 μg/mL single dose, n=2, read-out: Growth inhibition Kp
[19] = ATCC27853, 32 μg/mL single dose, n=2, read-out: Growth inhibition Pa
[20] = K12, broth microdilution, MHB, 18 hrs
[21] = aqueous buffer, in PBS, read-out: Solubility in PBS

MIC (E. coli K12 [9]; [20]) [µg/mL] | SMILES | Activity: number of organism classes the compound has been found active against [3] | inhibition at 32 µg/mL [1, 13] [%] | inhibition at 32 µg/mL [2, 14] [%] | inhibition at 32 µg/mL [4, 15] [%] | inhibition at 32 µg/mL [5, 16] [%] | inhibition at 32 µg/mL [6, 17] [%] | inhibition at 32 µg/mL [7, 18] [%] | inhibition at 32 µg/mL [8, 19] [%] | further results
32 | C[N+](C)(C)CCCCOc1ccc(/C=C/c2ccc(/C=C/c3ccc(OCCCC[N+](C)(C)C)cc3)cc2)cc1 [COE-T4] | 2 | > 80 | 50 to 80 | < 50 | > 80 | > 80 | < 50 | < 50 | solubility [10, 21]: 210 µg/mL; solubility ([10]; aqueous solution, read-out: aqueous solubility): 210 µg/mL; Uptake by E. coli K12 (E. coli K12 [11]): 75±5% and 80%
> 16 | C[N+](C)(C)CCCCCCOc1ccc(/C=C/c2ccc(/C=C/c3ccc(OCCCCCC[N+](C)(C)C)cc3)cc2)cc1 [COE-T6] | 2 | > 80 | < 50 | < 50 | > 80 | > 80 | < 50 | < 50 | solubility [10, 21]: 76 µg/mL; Uptake by E. coli K12 (E. coli K12 [11]): 89%
8 | CN(C)CC[N+](C)(C)CCCCOc1ccc(/C=C/c2ccc(/C=C/c3ccc(OCCCC[N+](C)(C)CCN(C)C)cc3)cc2)cc1 [COE-T42N] | 3 | > 80 | > 80 | > 80 | > 80 | > 80 | < 50 | < 50 | –
64 | CN(C)CC[N+](C)(C)CCCCCCOc1ccc(/C=C/c2ccc(/C=C/c3ccc(OCCCCCC[N+](C)(C)CCN(C)C)cc3)cc2)cc1 [COE-T62N] | 2 | > 80 | > 80 | < 50 | > 80 | > 80 | < 50 | < 50 | –

The remaining lines, values behind:

SMILES | MIC (E. coli K12 [9]; [20]) [µg/mL] | Activity: number of organism classes the compound has been found active against [3] | inhibition at 32 µg/mL [1, 13] [%] | inhibition at 32 µg/mL [2, 14] [%] | inhibition at 32 µg/mL [4, 15] [%] | inhibition at 32 µg/mL [5, 16] [%] | inhibition at 32 µg/mL [6, 17] [%] | inhibition at 32 µg/mL [7, 18] [%] | inhibition at 32 µg/mL [8, 19] [%] | further results
C[N+](C)(C)CC[N+](C)(C)CCCCOc1ccc(/C=C/c2ccc(OCCCC[N+](C)(C)CC[N+](C)(C)C)cc2)cc1 [COE-D42] | – | 1 | – | – | – | – | – | – | – | inhibition at 32 µg/mL ([1]; read-out: Growth inhibition Sa): > 80%; inhibition at 32 µg/mL ([2]; ATCC19606, read-out: Growth inhibition Ab): < 50%; inhibition at 32 µg/mL ([4]; ATCC25922, read-out: Growth inhibition Ec): < 50%; inhibition at 32 µg/mL ([5]; ATCC208821, read-out: Growth inhibition Cn): < 50%; inhibition at 32 µg/mL ([6]; ATCC90028, read-out: Growth inhibition Ca): < 50%; inhibition at 32 µg/mL ([7]; ATCC700603, read-out: Growth inhibition Kp): < 50%; inhibition at 32 µg/mL ([8]; ATCC27853, read-out: Growth inhibition Pa): < 50%; MIC (E. coli K12 [9]; K12, 18 h): 128 µg/mL
C[N+](C)(C)CC[N+](C)(C)CCCCCCOc1ccc(/C=C/c2ccc(OCCCCCC[N+](C)(C)CC[N+](C)(C)C)cc2)cc1 [COE-D62] | 16 | 3 | > 80 | > 80 | > 80 | > 80 | < 50 | > 80 | < 50 | –
C[N+](C)(C)CC[N+](C)(C)CCCCCCCCOc1ccc(/C=C/c2ccc(OCCCCCCCC[N+](C)(C)CC[N+](C)(C)C)cc2)cc1 [COE-D82] | 32 | 3 | > 80 | 50 to 80 | > 80 | > 80 | > 80 | 50 to 80 | > 80 | –
CC(C)(O/N=C(\C(=O)N[C@@H]1C(=O)N2C(C(=O)[O-])=C(C[n+]3ccccc3)CS[C@H]12)c1csc(N)n1)C(=O)O [Ceftazidime] | – | – | – | – | – | – | – | – | – | Minimum biofilm dispersal concentration [12]: >512 µg/mL
